Laboratory results reported in US6048874A, “Parenteral metolazone formulations” (priority 1999, dated 2000).
≈ marks a conversion by molar mass, not a printed value. Where “and” joins values, the source holds several entries; their conditions need not be identical. Equal entries are not always repeated.

Assays:
[1] = Apparent equilibrium solubility, spectrophotometric assay at 346 nm; type: physicochemical; settings: aqueous propylene glycol/ethanol, organic solvent or mixture
Description: The apparent equilibrium solubility of metolazone in an aqueous solvent of 65% w/v propylene glycol/15% w/v ethyl alcohol (95% v/v in water) was determined as described below.
A 250 mg quantity of metolazone was equilibrated with 20 ml of a solvent consisting of 65% w/v propylene glycol, 15% w/v ethyl alcohol (95% v/v in water), and water for 24 hours at room temperature on a wrist action shaker. […] After equilibration, the solution was filtered through a 0.45 μm filter, diluted, and assayed spectrophotometrically at 346 nm.

[2] = diuretic; cited from earlier work
[3] = Apparent equilibrium solubility redetermined, UV analysis; type: physicochemical; settings: 65% w/v propylene glycol/15% w/v ethyl alcohol/water, UV 235 nm
Description: (§1) The apparent equilibrium solubility was redetermined more accurately as follows. A 300 g quantity of ethyl alcohol (95% v/v in water) and 1300 g of propylene glycol were added to a 2000 ml volumetric flask and mixed well. Next, purified water was added q.s. to 2000 ml. This is the solvent.
(§2) Nine 30 ml amber bottles were filled with 25 ml of the solvent and 400 mg of metolazone and mixed on a wrist arm shaker for 24 hours (3 bottles), 48 hours (3 bottles), and 72 hours (3 bottles). The samples were filtered through a membrane filter (Whatman 25 mm 601X Nylon Filter (0.45 μm)). The concentration of the samples was determined by HPLC and by UV analysis.
The sample concentrations were measured by the UV absorbance at 235 nm using an UV/VIS spectrophotometer (HP 8453, available from Hewlett-Packard, Palo Alto, Calif.).

[4] = cited from earlier work
[5] = Apparent equilibrium solubility redetermined, HPLC analysis; type: physicochemical; settings: 65% w/v propylene glycol/15% w/v ethyl alcohol/water
Description: as §1, §2
The sample concentrations were analyzed by an HPLC system (HP 1100, available from Hewlett-Packard, Palo Alto, Calif.) equipped with a C18 column and an UV detector set at 230 nm. The mobile phase consisted of water and methanol at a ratio of 62/38 (v/v) and was used at a flow rate of 1.5 ml/minute.

[6] = cited from earlier work; remark: listed apart in the source
[7] = cited from earlier work; remark: listed apart in the source

## Cc1ccccc1N1C(=O)c2cc(S(N)(=O)=O)c(Cl)cc2NC1C (stereo not shown) [Metolazone, 7-chloro-1,2,3,4-tetrahydro-2-methyl-3-(2-methylphenyl)-4-oxo-6-quinazolinesulfonamide]
[1]; 65% w/v propylene glycol, 15% w/v ethyl alcohol (95% v/v in water), water, 24 hours, room temperature, spectrophotometric 346 nm
  solubility thermodynamic at 24 h: 8360 µg/mL (≈ 22.9 mM)
[1]; aqueous 65% w/v propylene glycol, 15% w/v ethyl alcohol, read-out: apparent equilibrium solubility limit
  solubility thermodynamic: ~8000 µg/mL (≈ 21.9 mM)
[2]
  potency, on a weight basis, vs quinethazone or hydrochlorothiazide: greater potency
[3]; aqueous propylene glycol/ethanol, organic solvent or mixture, shaken 24 hrs, read-out: Concentration of Metolazone, UV (apparent equilibrium solubility)
  solubility thermodynamic at 24 h: 8090 µg/mL (≈ 22.1 mM)
[3]; aqueous propylene glycol/ethanol, organic solvent or mixture, shaken 48 hrs, read-out: Concentration of Metolazone, UV (apparent equilibrium solubility)
  solubility thermodynamic at 48 h: 7580 µg/mL (≈ 20.7 mM)
[3]; aqueous propylene glycol/ethanol, organic solvent or mixture, shaken 72 hrs, read-out: Concentration of Metolazone, UV (apparent equilibrium solubility)
  solubility thermodynamic at 72 h: 7300 µg/mL (≈ 20 mM)
[3]; shaken 24 hrs, 1440 min
  Concentration of Metolazone, UV (apparent equilibrium solubility): 7540 µg/mL and 7410 µg/mL
[3]; shaken 48 hrs, 2880 min
  Concentration of Metolazone, UV (apparent equilibrium solubility): 7560 µg/mL and 7430 µg/mL
[3]; shaken 72 hrs, 4320 min
  Concentration of Metolazone, UV (apparent equilibrium solubility): 7310 µg/mL and 7550 µg/mL
[4]
  decomposition when exposed to light: decompose when exposed to light
[5]; aqueous propylene glycol/ethanol, organic solvent or mixture, shaken 24 hrs, read-out: Concentration of Metolazone, HPLC (apparent equilibrium solubility)
  solubility thermodynamic at 24 h: 7900 µg/mL (≈ 21.6 mM)
[5]; aqueous propylene glycol/ethanol, organic solvent or mixture, shaken 48 hrs, read-out: Concentration of Metolazone, HPLC (apparent equilibrium solubility)
  solubility thermodynamic at 48 h: 7810 µg/mL (≈ 21.3 mM)
[5]; aqueous propylene glycol/ethanol, organic solvent or mixture, shaken 72 hrs, read-out: Concentration of Metolazone, HPLC (apparent equilibrium solubility)
  solubility thermodynamic at 72 h: 7610 µg/mL (≈ 20.8 mM)
[5]; shaken 24 hrs, 1440 min
  Concentration of Metolazone, HPLC (apparent equilibrium solubility): 7730 µg/mL and 7650 µg/mL
[5]; shaken 48 hrs, 2880 min
  Concentration of Metolazone, HPLC (apparent equilibrium solubility): 7680 µg/mL and 7660 µg/mL
[5]; shaken 72 hrs, 4320 min
  Concentration of Metolazone, HPLC (apparent equilibrium solubility): 7680 µg/mL and 7910 µg/mL
[6]; aqueous solution, alkali hydroxides
  pH of aqueous solution sufficient to solubilize metolazone: about 11
[6]; pH of about 11
  chemical stability at high pH: chemically unstable
[7]
  solubility in water: about 0.02 mg/ml
